Columns and labels:
[1] = tested on: icilin induced wet-dog shakes; assay: Inhibition of icilin induced shaking (wet-dog shakes) in rats; type: in vivo, male Sprague Dawley rats; settings: po, rat
Experimental: Inhibition of Icilin Induced Shaking in Rats
Example compounds at doses ranging from 0.01 to 3 mg/kg (p.o, suspended in 5% Tween80/Oralplus or suspended in 2% HPMC-1% Tween-80 pH2.2 with MSA, 5 mL/kg) can be administered to male Sprague Dawley rats (200-300 g, Harlan, n=6-8/treatment) 2 h before icilin to assess the ability to block the spontaneous wet-dog shake phenomena induced by icilin (i.p., suspended in 100% PEG400 at 0.5 mg/kg, 1 mL/kg or p.o., suspended in 2% HPMC-1% Tween-80 at 3 mg/kg, 2.5 mL/kg). Spontaneous wet-dog shakes may be counted manually by two blinded observers or using LABORAS automation (Metris) for 30 min post-icilin. The synthesized and prophetic example compounds may be measured using these procedures and will be found to reduce the spontaneous wet dog shake phenomena induced by icilin.

human TRPM8 = biological target: T1, human TRPM8 (Homo sapiens, UniProt Q7Z2W7); assay: Luminescence readout assay for measuring intracellular calcium (aequorin, CHO cells expressing human TRPM8; icilin, L-menthol or cold activation); type: cell-based; settings: CHO cells expressing human TRPM8, icilin activation (1 μM), aequorin luminescence; read-out: hTRPM8 IC50
T1 construct: expressed in transfected cells; host or cells: Chinese hamster ovary (CHO) cells, T-REx tetracycline-inducible expression system (Invitrogen); co-transfected with pcDNA3.1 aequorin
How it was run: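 Activation was by 1 μM icilin, 100 μM L-menthol (test compound 2.5 min ahead) or cold buffer below 10° C (compound 1 min ahead). Calcium rise measured as aequorin luminescence in CHO cells with tetracycline-inducible human TRPM8.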

T1 sequence (Q7Z2W7 whole entry): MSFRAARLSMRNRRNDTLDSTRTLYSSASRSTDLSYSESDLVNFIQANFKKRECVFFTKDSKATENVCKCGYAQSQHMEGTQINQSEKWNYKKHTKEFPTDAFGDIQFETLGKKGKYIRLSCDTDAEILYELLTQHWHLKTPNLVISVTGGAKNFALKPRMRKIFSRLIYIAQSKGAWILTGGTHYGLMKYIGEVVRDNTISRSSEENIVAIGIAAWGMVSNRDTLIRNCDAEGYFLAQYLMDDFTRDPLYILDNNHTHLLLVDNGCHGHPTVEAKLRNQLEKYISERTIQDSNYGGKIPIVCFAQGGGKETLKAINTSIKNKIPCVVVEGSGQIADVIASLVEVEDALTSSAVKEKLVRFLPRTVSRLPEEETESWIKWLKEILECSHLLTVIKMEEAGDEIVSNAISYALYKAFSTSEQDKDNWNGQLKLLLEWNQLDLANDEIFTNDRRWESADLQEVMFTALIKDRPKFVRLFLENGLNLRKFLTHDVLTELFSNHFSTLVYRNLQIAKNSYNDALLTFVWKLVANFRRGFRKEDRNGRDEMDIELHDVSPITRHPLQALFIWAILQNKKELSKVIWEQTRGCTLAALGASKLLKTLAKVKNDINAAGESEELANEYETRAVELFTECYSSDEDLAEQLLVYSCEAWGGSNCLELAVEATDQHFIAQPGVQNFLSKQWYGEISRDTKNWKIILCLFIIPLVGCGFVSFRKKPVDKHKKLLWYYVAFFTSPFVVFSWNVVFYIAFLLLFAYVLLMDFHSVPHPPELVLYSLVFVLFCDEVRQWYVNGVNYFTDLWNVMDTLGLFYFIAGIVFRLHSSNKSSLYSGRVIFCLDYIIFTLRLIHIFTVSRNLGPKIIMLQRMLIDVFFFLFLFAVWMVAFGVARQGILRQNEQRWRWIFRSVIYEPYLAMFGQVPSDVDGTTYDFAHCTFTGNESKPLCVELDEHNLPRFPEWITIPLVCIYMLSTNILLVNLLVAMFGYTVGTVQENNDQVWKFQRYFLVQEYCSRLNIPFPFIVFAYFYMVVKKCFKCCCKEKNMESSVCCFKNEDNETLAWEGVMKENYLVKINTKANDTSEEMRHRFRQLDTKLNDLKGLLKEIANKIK

IC50 (human TRPM8)	SMILES	inhibition in vivo at 1 mg/kg [1]	inhibition in vivo at 0.3 mg/kg ([1]; dose 0.3 mg/kg)
15 nM	CCc1cc(C(=O)N[C@]2(c3ccc(OC(F)(F)F)c(F)c3)CCOc3cccnc32)ccc1C(=O)O [Example 291, (S)-2-ethyl-4-((4-(3-fluoro-4-(trifluoromethoxy)phenyl)-3,4-dihydro-2H-pyrano[3,2-b]pyridin-4-yl)carbamoyl)benzoic acid]	97%	–
8 nM	Cc1nc(C(=O)N[C@]2(c3ccc(OC(F)(F)F)c(F)c3)CCOc3cccnc32)ccc1C(=O)O [Example 310, (S)-6-((4-(3-fluoro-4-(trifluoro-methoxy)phenyl)-3,4-dihydro-2H-pyrano[3,2-b]pyridin-4-yl)carbamoyl)-2-methylnicotinic acid]	98%	–
14 nM	O=C(O)c1ccc(C(=O)N[C@]2(c3ccc(C(F)(F)F)c(F)c3)CCOc3cccnc32)nc1 [Example 313, (S)-6-((4-(3-fluoro-4-(trifluoro-methyl)phenyl)-3,4-dihydro-2H-pyrano[3,2-b]pyridin-4-yl)carbamoyl) nicotinic acid]	99%	–
4 nM	COc1cc(C(=O)O)ccc1C(=O)N[C@]1(c2ccc(OC(F)(F)F)c(F)c2)CCOc2cccnc21 [Example 314, (S)-4-((4-(3-fluoro-4-(trifluoromethoxy)phenyl)-3,4-dihydro-2H-pyrano[3,2-b]pyridin-4-yl)carbamoyl)-3-methoxybenzoic acid]	99%	–
25 nM	O=C(O)c1ccc(C(=O)N[C@]2(c3ccc(Cl)c(Cl)c3)CCOc3cccnc32)nc1 [Example 318, (S)-6-((4-(3,4-dichloro-phenyl)-3,4-dihydro-2H-pyrano[3,2-b]pyridin-4-yl)carbamoyl) nicotinic acid]	86%	–
15 nM	Cc1cc(C(=O)N[C@]2(c3ccc(OC(F)(F)F)cc3)CCOc3cccnc32)ccc1C(=O)O [Example 319, (S)-2-methyl-4-((4-(4-(trifluoro-methoxy)phenyl)-3,4-dihydro-2H-pyrano[3,2-b]pyridin-4-yl)carbamoyl) benzoic acid]	–	75%
12 nM	Nc1cc(C(=O)N[C@]2(c3ccc(OC(F)(F)F)c(F)c3)CCOc3cccnc32)ccc1C(=O)O [Example 321, (S)-2-amino-4-((4-(3-fluoro-4-(trifluoro-methoxy)phenyl)-3,4-dihydro-2H-pyrano[3,2-b]pyridin-4-yl)carbamoyl) benzoic acid]	95%	–
33 nM	O=C(O)c1ccc(C(=O)N[C@]2(c3ccc(C(F)(F)F)cc3)CCOc3cccnc32)nc1 [Example 326, (S)-6-((4-(4-(trifluoro-methyl)phenyl)-3,4-dihydro-2H-pyrano[3,2-b]pyridin-4-yl)carbamoyl) nicotinic acid]	98%	–
23 nM	O=C(O)c1ccc(C(=O)N[C@]2(c3ccc(OC(F)(F)F)cc3)CCOc3cccnc32)nc1 [Example 327, (S)-6-((4-(4-(trifluoro-methoxy)phenyl)-3,4-dihydro-2H-pyrano[3,2-b]pyridin-4-yl)carbamoyl) nicotinic acid]	93%	–
16 nM	Cc1cc(C(=O)N[C@]2(c3ccc(OC(F)(F)F)c(F)c3)CCOc3cccnc32)ccc1C(=O)O [Example 332, (S)-4-((4-(3-fluoro-4-(trifluoromethoxy)phenyl)-3,4-dihydro-2H-pyrano[3,2-b]pyridin-4-yl)carbamoyl)-2-methylbenzoic acid]	99%	–

Source: patent US20150031668A1, “CHROMAN DERIVATIVES AS TRPM8 INHIBITORS” (AMGEN INC., priority 2013, published 2015)
